Reference: patent US20210120808A1, “Methods and Systems for Synergistic Continuity Approaches to Treatment and Preservation of Biological Cells” (Membrane Protective Technologies, Inc., priority 2017, published 2021)
Marks after values point to notes of the source that are not given here.

Test system: phospholipase A2
Assay: Egg yolk coagulation by goat seminal plasma in lactose yolk extender, image analysis with ImageJ
Assay type: biochemical
Procedure: An egg yolk extender was prepared substituting lactose (Trizma base 131.5 mM, Lactose 73 mM 40% v:v egg yolk), without citric acid and pH was adjusted to a standard extender pH of 7. Semen from […] was collected using an artificial vagina. The ejaculate was centrifuged for 5 min at 1000×g. The supernatant (seminal plasma) was removed, then 1 part seminal plasma was added to 1 part extender to create a 20% yolk solution. Extender was either lactose yolk extender alone or lactose yolk extender modified to contain the phospholipase inhibitor curcumin as found in Sea Buckthorn (see Gupta et al. Molecular and Cellular biochemistry October 2006 290:193, hereby incorporated by reference). Representative pictures were taken of each solution, then the 22° C. solutions of seminal plasma plus the various extenders were frozen to −80° C. and allowed to remain frozen for >24 hrs. Samples were thawed by incubation in 37° C. water bath for 1 minute, then representative pictures were taken. For each picture, the negative space (the white area visible between droplets) was measured using ImageJ software by adjusting the image threshold using “Auto” setting then analyzing particle size (see Rasband, W. S., ImageJ, U.S. National Institutes of Health, Bethesda, Md., USA, https://imagej.nih.gov/ij/, 1997-2018, hereby incorporated by reference). The mean particle size was recorded and the images were analyzed in triplicate. […] The left column is a non-limiting example of a pictorial representation of the lactose yolk solution without seminal plasma (control) pre-freezing and post-freezing. One observes that there is no significant change in the size of the egg yolk lipid droplets, and no coagulation has occurred.

COc1cc(/C=C/C(=O)CC(=O)/C=C/c2ccc(O)c(OC)c2)ccc1O [curcumin]
coagulation of egg yolk particles compared to Control (area of coagulation, seminal plasma with vs without inhibitor, FIG. 8): statically significant decrease | Post-Thaw Area (frozen to −80° C. >24 hrs, thawed at 37° C., single pygmy buck, p < 0.05): 35.6* pixel^2 | Pre-Freeze Area (goat seminal plasma plus lactose yolk extender, 0.2% curcumin, single pygmy buck, p < 0.05): 26.3* pixel^2 | pre-freeze coagulation (pre-freeze seminal plasma with 0.2% plant-derived curcumin vs without curcumin): less coagulated | Coagulation rank (single pygmy buck, untreated seminal plasma ranks 2): 1
